Laboratory results published in publication PMC11111408, “Concurrent inhibition of oncogenic and wild-type RAS-GTP for cancer therapy” (Nature, 2024).
“And” between values parts separate entries of the source, which are not always exact repeats. Equal values may be shown once.

Experiments:
Assay type in all cases: cell-based
KRAS^Q61H = KRAS^Q61H (Homo sapiens, UniProt P01116+P62937, Q61H); experiment: Cellular RAS–RAF (CRAF RBD) disruption, nano-BRET in U2OS cells; set-up: expressed in transfected cells; host or cells: U2OS or U2OS PPIA-KO; settings: (95% CI)
Description: (§1) KRAS4B, or other small GTPases, containing the indicated mutations were cloned in pNLF-N or pHTN plasmids for expression with an N-terminal nanoluciferase or HaloTag fusion, respectively. […] The following day, the cells were collected by Trypsin and reseeded in a white tissue culture-treated 96-well plate in OptiMem phenol red-free medium (Gibco) containing 4% FBS and a 1:1,000 dilution of NanoBRET 618 HaloTag ligand (Promega). For endpoint concentration response curves, vivazine nanoluciferase substrate was added to 1× concentration in OptiMem phenol red-free medium with 4% FBS. Varying concentrations of inhibitor were added and incubated for 1 or 4 h before the nano-BRET signal was measured on a Perkin Elmer Envision plate reader. For kinetic assays, endurazine nanoluciferase substrate was used in place of vivazine, and the plate was placed in a Cytation5 multi-mode reader pre-equilibrated to 37 °C and 5% CO2.

KRAS^G12A = KRAS^G12A (Homo sapiens, UniProt P01116+P62937, G12A); experiment: as above; set-up: expressed in transfected cells; host or cells: U2OS or U2OS PPIA-KO; settings: (95% CI)
Description: as §1

[1] = target: T1, MRAS and other RAS family small GTPase proteins (Homo sapiens, UniProt Q15382); experiment: Cellular BRET between CYPA and small GTPases (RIT1, MRAS, RRAS, RRAS2, Rheb); settings: RHEB, single replicates
T1 construct: expressed in transfected cells; host or cells: U2OS PPIA-KO

[2] = target: T2, MRAS and other RAS family small GTPase proteins (Homo sapiens, UniProt Q92963); experiment: as above; settings: RIT1, single replicates
T2 construct: expressed in transfected cells; host or cells: U2OS PPIA-KO

[3] = target: T3, MRAS and other RAS family small GTPase proteins (Homo sapiens, UniProt O14807, Q71R); experiment: as above; settings: MRAS Q71R, single replicates
T3 construct: expressed in transfected cells; host or cells: U2OS PPIA-KO
T3 sequence (O14807 1-208 Q71R): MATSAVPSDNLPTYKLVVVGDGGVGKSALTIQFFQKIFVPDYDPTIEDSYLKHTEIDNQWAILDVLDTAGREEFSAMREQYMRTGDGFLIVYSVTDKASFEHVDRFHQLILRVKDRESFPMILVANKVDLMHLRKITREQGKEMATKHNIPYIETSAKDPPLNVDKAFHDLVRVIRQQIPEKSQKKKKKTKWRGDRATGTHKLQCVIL

[4] = target: T4, MRAS and other RAS family small GTPase proteins (Homo sapiens, UniProt P62070, G23V); experiment: as above; settings: RRAS2 G23V, single replicates
T4 construct: expressed in transfected cells; host or cells: U2OS PPIA-KO
T4 sequence (P62070 1-204 G23V): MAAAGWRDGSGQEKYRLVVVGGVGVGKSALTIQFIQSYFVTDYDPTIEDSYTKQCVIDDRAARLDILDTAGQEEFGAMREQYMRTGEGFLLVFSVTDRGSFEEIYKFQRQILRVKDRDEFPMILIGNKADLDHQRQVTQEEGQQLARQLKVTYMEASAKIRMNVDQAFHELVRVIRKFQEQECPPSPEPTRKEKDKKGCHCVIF

In the case of `CCn1c(-c2cc(N3CCN(C4CC4)CC3)cnc2[C@H](C)OC)c2c3cc(ccc31)-c1csc(n1)C[C@H](NC(=O)[C@H]1[C@@H]3COC[C@@H]31)C(=O)N1CCC[C@H](N1)C(=O)OCC(C)(C)C2` [RMC-7977], the EC50 (KRAS^Q61H) is reported as 17.2 nM, the EC50 (KRAS^G12A) is reported as 30.3 nM and the “Cellular milliBRET signal between CYPA and small GTPase protein” value ([1]; RMC-7977 1.524 nM) is reported as -0.45 milliBRET and -0.2239 milliBRET and 0.1289 milliBRET and 0.6887 milliBRET and -0.5364 milliBRET and -0.5485 milliBRET. The “Cellular milliBRET signal between CYPA and small GTPase protein” value ([1]; RMC-7977 4.572 nM) was 0.6966 milliBRET and 0.368 milliBRET and 0.4716 milliBRET and -0.2095 milliBRET and 0.8367 milliBRET and -0.3539 milliBRET, the “Cellular milliBRET signal between CYPA and small GTPase protein” value ([1]; RMC-7977 13.717 nM) was 1.377 milliBRET and 0.5452 milliBRET and 0.5599 milliBRET and 0.1038 milliBRET and 0.7915 milliBRET and 0.2385 milliBRET and the “Cellular milliBRET signal between CYPA and small GTPase protein” value ([1]; RMC-7977 41.152 nM) was 0.3762 milliBRET and 0.1445 milliBRET and -0.08351 milliBRET and -0.3538 milliBRET and 0.07098 milliBRET and 0.09785 milliBRET. The “Cellular milliBRET signal between CYPA and small GTPase protein” value ([1]; RMC-7977 123.457 nM) was 1.173 milliBRET and 0.0474 milliBRET and 0.6247 milliBRET and 0.06196 milliBRET and -0.03233 milliBRET and -0.4308 milliBRET, the “Cellular milliBRET signal between CYPA and small GTPase protein” value ([1]; RMC-7977 370.370 nM) was 0.02833 milliBRET and 1.208 milliBRET and -0.3412 milliBRET and 1.195 milliBRET and -0.2334 milliBRET and 1.355 milliBRET and the “Cellular milliBRET signal between CYPA and small GTPase protein” value ([1]; RMC-7977 1111.111 nM) was 0.8505 milliBRET and -0.1562 milliBRET and 0.9686 milliBRET and -0.197 milliBRET and 0.47 milliBRET and 0.6063 milliBRET. For the same molecule, the “Cellular milliBRET signal between CYPA and small GTPase protein” value ([2]; RMC-7977 1.524 nM) was -0.09879 milliBRET and 0.3095 milliBRET and 0.2348 milliBRET and 0.5374 milliBRET and 0.06248 milliBRET and 1.089 milliBRET, the “Cellular milliBRET signal between CYPA and small GTPase protein” value ([2]; RMC-7977 4.572 nM) was 1.317 milliBRET and 0.9916 milliBRET and 1.087 milliBRET and 0.9533 milliBRET and 1.62 milliBRET and 0.6301 milliBRET and the “Cellular milliBRET signal between CYPA and small GTPase protein” value ([2]; RMC-7977 13.717 nM) was 2.2977 milliBRET and 1.206 milliBRET and 2.0899 milliBRET and 1.6222 milliBRET and 2.532 milliBRET and 1.262 milliBRET. For the same molecule, the “Cellular milliBRET signal between CYPA and small GTPase protein” value ([2]; RMC-7977 41.152 nM) was 3.198 milliBRET and 4.946 milliBRET and 3.114 milliBRET and 5.017 milliBRET and 3.557 milliBRET and 4.376 milliBRET, the “Cellular milliBRET signal between CYPA and small GTPase protein” value ([2]; RMC-7977 123.457 nM) was 3.95 milliBRET and 6.444 milliBRET and 3.939 milliBRET and 6.521 milliBRET and 4.166 milliBRET and 6.383 milliBRET and the “Cellular milliBRET signal between CYPA and small GTPase protein” value ([2]; RMC-7977 370.370 nM) was 5.287 milliBRET and 9.701 milliBRET and 5.757 milliBRET and 9.124 milliBRET and 5.435 milliBRET and 8.897 milliBRET. The “Cellular milliBRET signal between CYPA and small GTPase protein” value ([2]; RMC-7977 1111.111 nM) was 5.773 milliBRET and 8.825 milliBRET and 5.603 milliBRET and 8.649 milliBRET and 4.274 milliBRET and 8.593 milliBRET, the “Cellular milliBRET signal between CYPA and small GTPase protein” value ([3]; RMC-7977 1.524 nM) was 0.1742 milliBRET and -0.02549 milliBRET and -0.02476 milliBRET and 0.1125 milliBRET and -0.009573 milliBRET and 0.6001 milliBRET and the “Cellular milliBRET signal between CYPA and small GTPase protein” value ([3]; RMC-7977 4.572 nM) was 0.2187 milliBRET and 0.4442 milliBRET and 0.7681 milliBRET and 0.6759 milliBRET and 0.0576 milliBRET and 0.4387 milliBRET. The “Cellular milliBRET signal between CYPA and small GTPase protein” value ([3]; RMC-7977 13.717 nM) was 1.192 milliBRET and 1.33 milliBRET and 1.81 milliBRET and 1.499 milliBRET and 1.997 milliBRET and 1.461 milliBRET, the “Cellular milliBRET signal between CYPA and small GTPase protein” value ([3]; RMC-7977 41.152 nM) was 3.258 milliBRET and 4.102 milliBRET and 3.883 milliBRET and 4.836 milliBRET and 4.487 milliBRET and 5.493 milliBRET and the “Cellular milliBRET signal between CYPA and small GTPase protein” value ([3]; RMC-7977 123.457 nM) was 7.175 milliBRET and 7.5859 milliBRET and 7.924 milliBRET and 8.745 milliBRET and 8.3065 milliBRET and 8.689 milliBRET. The “Cellular milliBRET signal between CYPA and small GTPase protein” value ([3]; RMC-7977 370.370 nM) was 10.161 milliBRET and 10.397 milliBRET and 10.5343 milliBRET and 10.3086 milliBRET and 10.5443 milliBRET and 10.7709 milliBRET, the “Cellular milliBRET signal between CYPA and small GTPase protein” value ([3]; RMC-7977 1111.111 nM) was 10.7121 milliBRET and 10.5516 milliBRET and 12.3365 milliBRET and 10.0544 milliBRET and 11.7366 milliBRET and 10.787 milliBRET and the “Cellular milliBRET signal between CYPA and small GTPase protein” value ([4]; RMC-7977 1.524 nM) was -0.2719 milliBRET and -0.4231 milliBRET and 0.2605 milliBRET and -0.1984 milliBRET and 0.524 milliBRET and 0.04711 milliBRET. For the same molecule, the “Cellular milliBRET signal between CYPA and small GTPase protein” value ([4]; RMC-7977 4.572 nM) was -0.5269 milliBRET and -0.1093 milliBRET and -0.06611 milliBRET and -0.1023 milliBRET and 0.1899 milliBRET and 0.4007 milliBRET, the “Cellular milliBRET signal between CYPA and small GTPase protein” value ([4]; RMC-7977 13.717 nM) was 0.6404 milliBRET and 0.07312 milliBRET and 0.4941 milliBRET and 0.7558 milliBRET and 0.6549 milliBRET and 1.032 milliBRET and the “Cellular milliBRET signal between CYPA and small GTPase protein” value ([4]; RMC-7977 41.152 nM) was 0.4251 milliBRET and 1.3441 milliBRET and 1.494 milliBRET and 1.804 milliBRET and 1.776 milliBRET and 2.155 milliBRET. The “Cellular milliBRET signal between CYPA and small GTPase protein” value ([4]; RMC-7977 123.457 nM) was 1.79 milliBRET and 2.3918 milliBRET and 3.205 milliBRET and 3.2803 milliBRET and 3.617 milliBRET and 3.886 milliBRET, the “Cellular milliBRET signal between CYPA and small GTPase protein” value ([4]; RMC-7977 370.370 nM) was 4.62 milliBRET and 5.516 milliBRET and 5.967 milliBRET and 6.807 milliBRET and 6.877 milliBRET and 7.887 milliBRET and the “Cellular milliBRET signal between CYPA and small GTPase protein” value ([4]; RMC-7977 1111.111 nM) was 5.956 milliBRET and 7.6238 milliBRET and 6.926 milliBRET and 8.351 milliBRET and 7.549 milliBRET and 9.519 milliBRET.
